Measurements as given in patent US20050137185A1, “Combinations of drugs for the treatment of neoplasms” (priority 2003, published 2005).
Read-outs that look alike come from different tables or passages of the source.

System: HCT116 cells
Test: Anti-proliferation assay (Alamar Blue metabolism)
Type: cell-based
Details: Homo sapiens, read-out: Percent inhibition of Alamar Blue Metabolism in HCT116 cells; for inhibition at 5 µM: HCT-116, chlorpromazine 5 μM; for inhibition at 10 µM: HCT-116, chlorpromazine 10 μM; for inhibition at 40 µM: HCT-116, chlorpromazine 40 μM
Description: Stock solutions (1000×) of each compound were prepared in DMSO and stored at −20° C. Master stock plates of 2-fold or 4-fold serial dilutions of individual compounds were prepared in 384-well plates. Combination matrices of test compounds were generated from these master stock plates by dilution into growth media described above. […] The combination matrices were used immediately and discarded.
The anti-proliferation assays were performed in 384-well plates. […] Cells were diluted in culture media such that 1500 cells were delivered in 40 μL of media into each assay well. […] 10× stock solutions (4.5 μL) from the combination matrices were added to 40 μL of culture media in assay wells. Assay plates were incubated for 72-80 hours at 37±0.5° C. with 5% CO2. […] Alamar Blue metabolism was quantified by the amount of fluorescence intensity 3.5-5.0 hours after addition. Quantification, using an LJL Analyst AD reader (LJL Biosystems), was taken in the middle of the well with high attenuation, a 100 msec read time, an excitation filter at 530 nm, and an emission filter at 575 nm. For some experiments, quantification was performed using a Wallac Victor^2 reader. Measurements were taken at the top of the well with stabilized energy lamp control; a 100 msec read time, an excitation filter at 530 nm, and an emission filter at 590 nm.

## CN(C)CCCN1c2ccccc2Sc2ccc(Cl)cc21 [Chlorpromazine, chlorpromazine]
HCT-116, 72 h, chlorpromazine 7 μM, tyrphostin 1486 0 μM
  inhibition at 7 µM: -18.6%
HCT-116, 72 h, chlorpromazine 14 μM, tyrphostin 1486 0 μM
  inhibition at 14 µM: -12.5%
HCT-116, 72 h, chlorpromazine 28 μM, tyrphostin 1486 0 μM
  inhibition at 28 µM: 62.2%
HCT-116, 72 h, chlorpromazine 56 μM, tyrphostin 1486 0 μM
  inhibition at 56 µM: 85.6%
HCT-116, 72 h, chlorpromazine […], tyrphostin 1486 0 μM
  inhibition at […]: 95.9%
Dacarbazine 0 μM
  inhibition at 5 µM: 17%
  inhibition at 10 µM: 54.6%
  inhibition at 40 µM: 95.8%
Docetaxel 0 μM
  inhibition at 5 µM: 2.8%
  inhibition at 10 µM: 84.8%
  inhibition at 40 µM: 95.7%
Floxuridine 0 μM
  inhibition at 5 µM: 3.53%
  inhibition at 10 µM: 65.4%
  inhibition at 40 µM: 95.7%
Hydroxycamptothecin 0 μM
  inhibition at 5 µM: 24%
  inhibition at 10 µM: 84%
  inhibition at 40 µM: 95.8%
Leucovorin 0 μM
  inhibition at 5 µM: -4.39%
  inhibition at 10 µM: 3.27%
  inhibition at 40 µM: 95.6%
Paclitaxel 0 μM
  inhibition at 5 µM: -11.8%
  inhibition at 10 µM: 56.2%
  inhibition at 40 µM: 95.7%
Vinblastine 0 μM
  inhibition at 5 µM: -20%
  inhibition at 10 µM: 50.8%
  inhibition at 40 µM: 94.5%
Vinorelbine 0 μM
  inhibition at 5 µM: -20%
  inhibition at 10 µM: 60%
  inhibition at 40 µM: 94.7%
HCT-116, chlorpromazine 20 μM, docetaxel 0 μM
  inhibition at 20 µM: 91.9%
HCT-116, chlorpromazine 20 μM, floxuridine 0 μM
  inhibition at 20 µM: 88.5%
HCT-116, chlorpromazine 20 μM, hydroxycamptothecin 0 μM
  inhibition at 20 µM: 88.2%
HCT-116, chlorpromazine 20 μM, leucovorin 0 μM
  inhibition at 20 µM: 80.9%
HCT-116, chlorpromazine 20 μM, paclitaxel 0 μM
  inhibition at 20 µM: 87%
HCT-116, chlorpromazine 20 μM, vinblastine 0 μM
  inhibition at 20 µM: 85.8%
HCT-116, chlorpromazine 20 μM, vinorelbine 0 μM
  inhibition at 20 µM: 88.4%
HCT-116, chlorpromazine […], dacarbazine 0 μM
  inhibition at […]: 4.03%
HCT-116, chlorpromazine […], docetaxel 0 μM
  inhibition at […]: -12.2%
HCT-116, chlorpromazine […], floxuridine 0 μM
  inhibition at […]: -0.0804%
HCT-116, chlorpromazine […], hydroxycamptothecin 0 μM
  inhibition at […]: -8.14%
HCT-116, chlorpromazine […], leucovorin 0 μM
  inhibition at […]: -0.0253%
HCT-116, chlorpromazine […], paclitaxel 0 μM
  inhibition at […]: 10.1%
HCT-116, chlorpromazine […], vinblastine 0 μM
  inhibition at […]: -20%
HCT-116, chlorpromazine […], vinorelbine 0 μM
  inhibition at […]: -0.591%

## CN(C)/N=N/c1[nH]cnc1C(N)=O [Dacarbazine, dacarbazine]
HCT-116, chlorpromazine 0 μM, dacarbazine 14 μM
  inhibition at 14 µM: 42.6%
HCT-116, chlorpromazine 0 μM, dacarbazine 27 μM
  inhibition at 27 µM: 64.6%
HCT-116, chlorpromazine 0 μM, dacarbazine 55 μM
  inhibition at 55 µM: 74.2%

## Nc1nc2c(c(=O)[nH]1)N(C=O)C(CNc1ccc(C(=O)N[C@@H](CCC(=O)O)C(=O)O)cc1)CN2 (some centres unmarked) [Leucovorin, leucovorin]
HCT-116, chlorpromazine 0 μM, leucovorin 20 μM
  inhibition at 20 µM: -11.5%

## COc1cc2ncnc(Nc3cccc(Cl)c3)c2cc1OC [Tyrphostin 1486, Tyrphostin AG1478]
HCT-116, chlorpromazine 0 μM, tyrphostin 1486 13 μM
  inhibition at 13 µM: 78.7%
HCT-116, chlorpromazine 0 μM, tyrphostin 1486 26 μM
  inhibition at 26 µM: 81.4%
HCT-116, chlorpromazine 0 μM, tyrphostin 1486 51 μM
  inhibition at 51 µM: 81.3%

## CCC1=C[C@@H]2CN(C1)Cc1c([nH]c3ccccc13)[C@@](C(=O)OC)(c1cc3c(cc1OC)N(C)[C@H]1[C@@](O)(C(=O)OC)[C@H](OC(C)=O)[C@]4(CC)C=CCN5CC[C@]31[C@@H]54)C2 [Vinorelbine, vinorelbine]
HCT-116, chlorpromazine 0 μM, vinorelbine 0.004 μM
  inhibition at 0.004 µM: -8.91%
HCT-116, chlorpromazine 0 μM, vinorelbine 0.008 μM
  inhibition at 0.008 µM: 42.1%
